From patent EP0428423A2, “Aryloxy alkyl benzenes, processes for their preparation and pharmaceutical compositions containing them” (LIPHA S.A., priority 1989, dated 1991)

Columns and labels:
lipoxygénase de soja = molecular target: T1, lipoxygénase de soja (Glycine max, UniProt P08170); assay: Anti-lipoxygenase action on soybean lipoxygenase; type: biochemical
T1 sequence (P08170 1-839): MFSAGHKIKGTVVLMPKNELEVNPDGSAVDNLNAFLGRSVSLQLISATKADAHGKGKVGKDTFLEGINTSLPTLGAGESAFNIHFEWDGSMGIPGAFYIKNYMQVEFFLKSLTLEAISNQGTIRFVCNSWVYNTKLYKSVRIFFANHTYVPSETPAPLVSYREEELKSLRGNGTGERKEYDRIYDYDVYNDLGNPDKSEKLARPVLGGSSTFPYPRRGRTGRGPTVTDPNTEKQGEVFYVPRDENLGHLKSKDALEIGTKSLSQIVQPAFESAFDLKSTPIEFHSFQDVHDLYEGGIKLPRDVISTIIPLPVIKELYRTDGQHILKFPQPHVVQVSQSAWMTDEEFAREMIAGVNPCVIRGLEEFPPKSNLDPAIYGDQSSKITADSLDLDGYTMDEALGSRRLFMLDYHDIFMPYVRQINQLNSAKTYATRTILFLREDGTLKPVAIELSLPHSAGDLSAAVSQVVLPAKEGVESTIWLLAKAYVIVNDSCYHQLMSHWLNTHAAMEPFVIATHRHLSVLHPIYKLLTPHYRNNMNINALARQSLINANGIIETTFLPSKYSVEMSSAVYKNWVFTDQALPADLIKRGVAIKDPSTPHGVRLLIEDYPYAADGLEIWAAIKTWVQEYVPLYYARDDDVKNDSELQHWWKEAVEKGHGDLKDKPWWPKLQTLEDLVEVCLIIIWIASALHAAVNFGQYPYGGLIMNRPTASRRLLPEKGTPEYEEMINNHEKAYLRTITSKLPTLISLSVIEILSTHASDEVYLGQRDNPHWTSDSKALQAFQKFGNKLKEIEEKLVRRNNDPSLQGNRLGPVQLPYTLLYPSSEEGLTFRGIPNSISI
Excerpt: L'action anti-lipoxygénase a été étudiée sur la lipoxygénase de soja selon la méthode décrite par W.L SMITH et W.E LANDS (J. Biol. Chem. 247 (1972) 1038-1047)

[1] = test system: plasmas riches en plaquettes provenant de sang de rat; assay: Platelet anti-aggregation in vitro, ADP-induced (Born aggregometer); type: cell-based; settings: in vitro, aggregating agent ADP, rat platelet-rich plasma, 37°; M not defined in the text; mM printed only in the TICLOPIDINE line
Description: Les études ont été réalisées sur des plasmas riches en plaquettes provenant de sang de rat, l'agrégation étant induite par addition d'acide Adénosine diphosphorique. Les courbes néphélométriques d'agrégation sont obtenues en utilisant un agrégomètre de type BORN, le plasma étant placé en incubation à 37° avec agitation continue de 1100 t/mn (cf. BORN G.V.R et CROSS J. - J. Physiol. 168 (1962) 178.

ACTIVITE ANTI-LIPOXYGENASE IC 50 (lipoxygénase de soja): Inactif
Compound: Cc1ccc(O)c(CCOc2ccccc2)c1 [ex 36]
M à 50 [1]: inactif
